Paper PMC5407577, “Functional and genetic evidence that nucleoside transport is highly conserved in Leishmania species: Implications for pyrimidine-based chemotherapy” (International Journal for Parasitology: Drugs and Drug …, 2017)
Where two headings read alike, the source gives them in different places.

Key:
[1] = molecular target: LmajNT1; assay: [3H]-thymidine uptake by L. major promastigotes; type: cell-based, Leishmania major
Procedure: (§1) Using the standard uptake technique as described for T. brucei and Leishmania species ([Wallace et al., 2002], [Al-Salabi and De Koning, 2005], [Gudin et al., 2006]), the dose- or time-dependent uptake of radiolabeled permeants was investigated.
(§2) Briefly, cells in the mid-to-late logarithmic stage of growth were harvested by centrifugation for 10 min at 1500×g. The cells were washed twice with transport assay buffer (AB: 33 mM HEPES, 98 mM NaCl, 4.6 mM KCl, 0.55 mM CaCl2, 0.07 mM MgSO4, 5.8 mM NaH2PO4, 0.3 mM MgCl2, 23 mM NaHCO3, 14 mM glucose, pH 7.3), resuspended at a density of 10^8 cells ml^−1 in AB, and left for 20–30 min at room temperature to recover from centrifugation stress. One hundred microliters of cell suspension was incubated at ambient temperature for a predetermined time with 100 μl radiolabeled test compound, in the presence or absence of unlabeled substrate or other competitive inhibitors. The incubation was terminated by the addition of ice-cold stop solution (AB containing saturating levels, usually 10 mM, of unlabeled permeant) and centrifugation through oil for 1 min at 13,000 × g. […] Radioactivity was determined by liquid scintillation counting in a Beckman LS6000 TA scintillation counter. Saturation data, inhibition data, and time courses were plotted to equations for linear or non-linear regression (hyperbolic or sigmoid curves), as appropriate. All experiments were performed in triplicate and on at least three independent occasions.
Subsequent experiments were performed with a 5 min incubation time.

[2] = test system: L. mexicana promastigotes WT; assay: Alamar blue drug sensitivity assay, L. mexicana WT; type: cell-based, Leishmania mexicana; conditions: Leishmania mexicana, 72 h, WT promastigotes, 72 h + 48 h with dye, n ≥ 4
Procedure: (§3) Sensitivity assays of Leishmania strains to various drugs using the viability dye resazurin (Alamar Blue) (Sigma-Aldrich) were performed using a protocol adapted from [Räz et al. (1997)], as described ([Al-Salabi et al., 2003], [Gould et al., 2008]). Pentamidine and diminazene were used as non-nucleoside controls and were obtained from Sigma-Aldrich, as were many purines, pyrimidines, and analogs, with the exceptions of 2-thiouridine and 4-thiouridine (TriLink BioTechnologies, San Diego, CA); 5′-deoxyuridine, and 2′-3′-dideoxyuridine (Carbosynth, Compton, UK); 5-fluoro-2′-deoxyuridine (Fluka); and 2-thiouracil (ICN Biomedicals, Cambridge, UK). A preliminary promastigote culture was diluted to a density of 2 × 10^6 cells/ml, of which 100 μl was added to wells of 96-well plates pre-loaded with 100 μl of doubling dilutions of test compounds, resulting in a final density of 1 × 10^6 cells/ml; the dilutions were over 2 rows of the plate (23 concentrations), with the last well containing only medium and serving as the no-drug control. The plates were incubated at 25 °C for 72 h before adding the Alamar Blue dye (20 μl of 12.5 mg resazurin sodium salt (Sigma) in 100 ml phosphate buffered saline (PBS; pH 7.4)). Since Leishmania parasites metabolize the Alamar Blue dye slower than trypanosomes ([Gould et al., 2008]), the cells were incubated with the dye for a further period of 48 h before measuring the fluorescence, using a FLUOstar Optima fluorimeter (BMG Labtech) at wavelengths of 544 nm for excitation and 620 nm for emission. […] Each experiment was performed independently at least 4 times; statistical significance was determined using Student's unpaired t-test.

[3] = test system: L. major promastigotes WT; assay: Alamar blue drug sensitivity assay, L. major WT; type: cell-based, Leishmania major; conditions: Leishmania major, WT promastigotes, 72 h + 48 h with dye, n ≥ 4
Procedure: as §3

[4] = test system: Lmex5FURes; assay: microbe, parasite or virus in culture; type: cell-based, Leishmania mexicana; conditions: for EC50: Leishmania mexicana; for RF (Resistance Factor = IC50 (resistant clone)/IC50 (WT)): Lmex5FURes vs L. mexicana WT
Procedure: as §3

[5] = test system: Lmex5F2′dURes; assay: microbe, parasite or virus in culture; type: cell-based, Leishmania mexicana; conditions: for EC50: Leishmania mexicana; for RF (Resistance Factor = IC50 (resistant clone)/IC50 (WT)): Lmex5F2′dURes vs L. mexicana WT
Procedure: as §3

[6] = test system: Lmaj5F2′dURes; assay: microbe, parasite or virus in culture; type: cell-based, Leishmania major; conditions: for EC50: Leishmania major; for RF (Resistance Factor = IC50 (resistant clone)/IC50 (WT)): Lmaj5F2′dURes vs L. major WT
Procedure: as §3

[7] = test system: Lmaj5FURes; assay: microbe, parasite or virus in culture; type: cell-based, Leishmania major; conditions: for EC50: Leishmania major; for RF (Resistance Factor = IC50 (resistant clone)/IC50 (WT)): Lmaj5FURes vs L. major WT
Procedure: as §3

[8] = molecular target: LmexNT1; type: cell-based, Leishmania mexicana
Procedure: as §1, §2
L. donovani is known to express one pyrimidine nucleoside transporter, LdNT1, which also transports adenosine ([Vasudevan et al., 1998], [De Koning et al., 2005]). In order to investigate whether this model held true for L. mexicana, the uptake of [^3H]-thymidine was studied. […] Care was taken throughout this study that whenever inhibition constants (Ki) or Michaelis-Menten constants (Km) were determined the conditions used had been verified to be well within the linear range of uptake.

[9] = molecular target: LmexNT1; assay: [3H]-adenosine uptake by L. mexicana promastigotes; type: cell-based, Leishmania mexicana; conditions: inhibition of 0.05 μM [3H]-adenosine uptake; read-out: Ki
From the text: Using the standard uptake technique as described for T. brucei and Leishmania species ([Wallace et al., 2002], [Al-Salabi and De Koning, 2005], [Gudin et al., 2006]), the dose- or time-dependent uptake of radiolabeled permeants was investigated. The following radiolabels and specific activities were used: [^3H]-thymidine (Perkin Elmer; 56.6 Ci/mmol); [^3H]-adenosine (American Radiolabeled Chemicals UK; 40 Ci/mmol); [^3H]-uridine (American Radiolabeled Chemicals UK; 30 Ci/mmol); [^3H]-uracil (Perkin Elmer; 24.8 Ci/mmol); [^3H]-inosine (American Radiolabeled Chemicals UK; 20 Ci/mmol); [^3H]-5-fluorouracil (Moravek; 20 Ci/mmol).
as §2
We next investigated the transport of [^3H]-adenosine in L. mexicana promastigotes, which according to the efficient inhibition of [^3H]-thymidine by adenosine, should be taken up with high affinity.

[10] = molecular target: LmexNT1; type: cell-based, Leishmania mexicana; remark: listed apart in the source
Procedure: as §1, §2

[11] = molecular target: LmexUU1; type: cell-based, Leishmania mexicana
Procedure: as §1, §2

[12] = inhibition of 0.25 μM [3H]-thymidine uptake (total LmajNT1.1 + LmajNT1.2), 5 min
[13] = inhibition of [3H]-uracil uptake, 4 min

O=c1ccn([C@@H]2O[C@H](CO)[C@@H](O)[C@H]2O)c(=S)[nH]1 [2-thiouridine]
Ki [1]: 765 ± 68 µM
EC50 [2]: > 5000 µM
EC50 ([3]; 72 h): > 5000 µM

O=c1ccn([C@H]2CC[C@@H](CO)O2)c(=O)[nH]1 [2′,3′-dideoxyuridine]
Ki [1]: > 2500 µM
EC50 [2]: > 5000 µM
EC50 ([3]; 72 h): > 5000 µM

O=C1C=CN([C@@H]2O[C@H](CO)[C@@H](O)[C@H]2O)C(=O)C1 [3-deazauridine]
Ki [1, 12]: 3670 ± 420 µM

Cc1cn([C@H]2CC[C@@H](CO)O2)c(=O)[nH]c1=O [3′-deoxythymidine]
Ki [1, 12]: 1250 ± 44.5 µM

O=c1ccn([C@@H]2O[C@H](CO)C[C@H]2O)c(=O)[nH]1 [3′-deoxyuridine]
EC50 [2]: > 5000 µM
EC50 ([3]; 72 h): > 5000 µM

O=c1[nH]c(=S)ccn1[C@@H]1O[C@H](CO)[C@@H](O)[C@H]1O [4-thiouridine]
Ki [1, 12]: 69 ± 18.1 µM
EC50 [2]: > 5000 µM
EC50 ([3]; 72 h): > 5000 µM

O=c1[nH]c(=O)n([C@H]2C[C@H](O)[C@@H](CO)O2)cc1Br [5-bromo-2′-deoxyuridine]
EC50 [2]: > 5000 µM
EC50 ([3]; 72 h): > 5000 µM

O=c1[nH]cc(Br)c(=O)[nH]1 [5-bromouracil]
EC50 [2]: > 5000 µM
EC50 ([3]; 72 h): > 5000 µM

O=c1[nH]c(=O)n([C@@H]2O[C@H](CO)[C@@H](O)[C@H]2O)cc1Br [5-bromouridine]
EC50 [2]: > 5000 µM
EC50 ([3]; 72 h): > 5000 µM

O=c1[nH]c(=O)n([C@H]2C[C@H](O)[C@@H](CO)O2)cc1Cl [5-chloro-2′-deoxyuridine]
EC50 [2]: > 5000 µM
EC50 ([3]; 72 h): > 5000 µM

O=c1[nH]c(=O)n([C@@H]2O[C@H](CO)[C@@H](O)[C@H]2O)cc1Cl [5-chlorouridine]
EC50 [2]: > 5000 µM
EC50 ([3]; 72 h): > 5000 µM

C[C@H]1O[C@@H](n2cc(F)c(=O)[nH]c2=O)[C@H](O)[C@@H]1O [5-fluoro,5′-deoxyuridine]
Ki [1, 12]: 168 ± 32 µM

Nc1nc(=O)n([C@@H]2O[C@H](CO)[C@@H](O)[C@H]2O)cc1F [5-fluorocytidine]
EC50 [2]: > 5000 µM
EC50 ([3]; 72 h): > 5000 µM

Nc1nc(=O)[nH]cc1F [5-fluorocytosine]
EC50 [2]: > 5000 µM
EC50 ([3]; 72 h): > 5000 µM

O=c1[nH]c(=O)n([C@H]2C[C@H](O)[C@@H](CO)O2)cc1I [5-iodo-2′-deoxyuridine]
EC50 [2]: > 5000 µM
EC50 ([3]; 72 h): > 5000 µM

O=c1[nH]c(=O)n([C@@H]2O[C@H](CO)[C@@H](O)[C@H]2O)cc1I [5-iodouridine]
EC50 [2]: > 5000 µM
EC50 ([3]; 72 h): > 5000 µM

Nc1nc(=O)n([C@H]2C[C@H](O)[C@@H](CO)O2)cc1F [5F-2′dCtd, 5-Fluoro-2′-deoxycytidine]
EC50 ([2]; read-out: EC50): 17.3 ± 1.8 µM
EC50 ([3]; read-out: EC50): 38 ± 1.7 µM
EC50 [4]: 24 ± 0.9 µM
RF (Resistance Factor = IC50 (resistant clone)/IC50 (WT)) [4]: 1.4
EC50 [5]: > 5000 µM
RF (Resistance Factor = IC50 (resistant clone)/IC50 (WT)) [5]: >290
EC50 [6]: 3870 ± 621 µM
RF (Resistance Factor = IC50 (resistant clone)/IC50 (WT)) [6]: 101
EC50 [7]: 17 ± 1.8 µM
RF (Resistance Factor = IC50 (resistant clone)/IC50 (WT)) [7]: 0.4

O=c1ccn([C@@H]2O[C@H](CF)[C@@H](O)[C@H]2O)c(=O)[nH]1 [5′-deoxy-5′-fluorouridine]
EC50 [2]: > 5000 µM
EC50 ([3]; 72 h): > 5000 µM

C[C@H]1O[C@@H](n2ccc(=O)[nH]c2=O)[C@H](O)[C@@H]1O [5′dUrd, 5′-deoxyuridine]
EC50 ([2]; read-out: EC50): 461 ± 80 µM
EC50 ([3]; read-out: EC50): 525 ± 46 µM

O=c1cn[nH]c(=O)[nH]1 [6-azauracil]
EC50 [2]: > 5000 µM
EC50 ([3]; 72 h): > 5000 µM

Nc1ccn([C@@H]2O[C@H](CO)[C@@H](O)[C@H]2O)c(=O)n1 [cytidine]
Ki [1, 12]: 1150 ± 108 µM
Ki ([8]; inhibition of 1 μM [3H]-thymidine uptake, 20 s): 82 ± 5 µM
Ki [9]: 149 ± 18 µM
Ki ([10]; inhibition of 0.25 μM [3H]-uridine uptake in the presence of 1 mM uracil): 78.6 ± 15.1 µM

Nc1cc[nH]c(=O)n1 [cytosine]
Ki [11, 13]: > 5000 µM

N=C(N)c1ccc(/N=N/Nc2ccc(C(=N)N)cc2)cc1 [diminazene]
EC50 ([2]; read-out: EC50): 7.4 ± 0.3 µM
EC50 ([3]; read-out: EC50): 9.8 ± 0.3 µM
EC50 [4]: 7.2 ± 1.4 µM
RF (Resistance Factor = IC50 (resistant clone)/IC50 (WT)) [4]: 0.97
EC50 [5]: 13.9 ± 1.9 µM
RF (Resistance Factor = IC50 (resistant clone)/IC50 (WT)) [5]: 1.8
EC50 [6]: 24.6 ± 1.5 µM
RF (Resistance Factor = IC50 (resistant clone)/IC50 (WT)) [6]: 2.5
EC50 [7]: 10 ± 1.6 µM
RF (Resistance Factor = IC50 (resistant clone)/IC50 (WT)) [7]: 1.02

O=c1[nH]cnc2nc[nH]c12 [hypoxanthine]
Ki [8]: > 1000 µM
Ki [10]: > 1000 µM
Ki [11]: > 500 µM

N=C(N)c1ccc(OCCCCCOc2ccc(C(=N)N)cc2)cc1 [pentamidine]
EC50 ([2]; read-out: EC50): 4.6 ± 0.2 µM
EC50 ([3]; read-out: EC50): 3.3 ± 0.2 µM
EC50 [4]: 5 ± 0.6 µM
RF (Resistance Factor = IC50 (resistant clone)/IC50 (WT)) [4]: 1.1

Cc1c[nH]c(=O)[nH]c1=O [thymine]
Ki [1, 12]: > 1000 µM
Ki [11, 13]: 560 ± 190 µM
